Experimental data reported in patent publication US20100179093A1, “Neoropeptide-2-Receptor (Y-2R) Agonists” (priority 2008, published 2010).

How the values were obtained:
hypothalamic slices = hypothalamic slices in vitro; cited from earlier work
Y4R = Y4R (Homo sapiens, UniProt P50391); test: CaFlux Assay (FLIPR), Y4R; type: cell-based
hNPY2R [1] = biological target: T1, hNPY2R (Homo sapiens, UniProt P49146); test: CaFlux Assay (FLIPR), Y2R; type: cell-based; set-up: expressed in transfected cells; host or cells: HEK-293 stably expressing G protein chimera Gaqi9
T1 sequence (P49146 1-381): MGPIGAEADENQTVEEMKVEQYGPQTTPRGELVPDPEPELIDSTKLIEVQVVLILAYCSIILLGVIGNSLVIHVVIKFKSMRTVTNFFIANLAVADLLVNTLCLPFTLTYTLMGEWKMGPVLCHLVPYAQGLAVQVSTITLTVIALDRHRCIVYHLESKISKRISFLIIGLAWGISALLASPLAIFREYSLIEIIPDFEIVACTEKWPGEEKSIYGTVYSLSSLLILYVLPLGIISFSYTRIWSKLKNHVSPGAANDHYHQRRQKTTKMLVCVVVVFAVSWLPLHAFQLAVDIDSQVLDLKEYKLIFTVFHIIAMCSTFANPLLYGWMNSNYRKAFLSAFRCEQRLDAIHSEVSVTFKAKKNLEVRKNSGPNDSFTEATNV
Method: Hek-293 cells were stably transfected with the G protein chimera Gaqi9 and the hygromycin-B resistance gene were further transfected with the human NPY2 receptor and G418 antibiotic selection. Following selection in both hygromycin-B and G418, individual clones were assayed for their response to PYY. The transfected cells were cultured in DMEM medium supplemented with 10% fetal bovine serum, 50 μg/mL hygromycin-B 2 mM glutamine, 100 U/mL penicillin, 100 μg/mL streptomycin and 250 μg/mL G418. Cells are harvested with trypsin-EDTA and counted using ViaCount reagent. The cell suspension volume is adjusted to 4.8×10^5 cells/mL with complete growth media. Aliquots of 25 μL are dispensed into 384 well Poly-D Lysine coated black/clear microplates (Falcon) and the microplates were placed in a 37° C. CO2 incubator overnight. Loading Buffer (Calcium-3 Assay Kit, Molecular Devices) was prepared by dissolving the contents of one vial (Express Kit) into 1000 mL Hank's Balanced Salt Solution containing 20 mM HEPES and 5 mM probenecid. Aliquots of 25 μL of diluted dye were dispensed into the cell plates and the plates are then incubated for 1 hour at 37° C. During the incubation, test compounds were prepared at 3.5× the desired concentration in HBSS (20 mM HEPES)/0.05% BSA/1% DMSO and transferred to a 384 well plate for use on FLIPR. After incubation, both the cell and compound plates were brought to the FLIPR and 20 μL of the diluted compounds were transferred to the cell plates by the FLIPR. During the assay, fluorescence readings were taken simultaneously from all 384 wells of the cell plate every 1.5 seconds. Five readings were taken to establish a stable baseline, and then 20 μL of sample was rapidly (30 μL/sec) and simultaneously added to each well of the cell plate. The fluorescence was continuously monitored before, during and after sample addition for a total elapsed time of 100 seconds. Responses (increase in peak fluorescence) in each well following addition were determined. The initial fluorescence reading from each well, prior to ligand stimulation, was used as a zero baseline value for the data from that well. The responses are expressed as % of maximal response of the positive control.

hNPY2R [2] = biological target: T1, hNPY2R; test: cAMP Agonist Assay, HEK293/hNPY2R cells; type: cell-based; set-up: expressed in transfected cells; host or cells: HEK293/hNPY2R (G418 selection)
Method: On the first day, medium was discarded, and the monolayer cells were washed with 10 mL PBS per flask (T225). […] The flask was gently tapped and the cell suspension was pooled. Each flask was rinsed with 10 mL plating medium and centrifuged at 1000 rpm for 5 min. The suspension was pooled and counted. The suspension was resuspended in plating medium at a density of 2.0×10^5 cells/mL for HEK293/hNPY2R. 50 microliters of cells (HEK293/hNPY2R-10,000 cells/well) were transferred into the 384-well plate using Multi-drop dispenser. The plates were incubated at 37° C. overnight. […] The media and reagents were allowed to come to room temperature. Before the dilutions were prepared, the stock solution of stimulating compound in dimethyl sulphoxide (DMSO, Sigma, cat #D2650) was allowed to warm up to 32 C for 5-10 min. […] The cell medium was tapped off with a gentle inversion of the cell plate on a paper towel. 50 μL of stimulation medium was placed per well (each concentration done in four replicates). The plates were incubated at room temperature for 30 min, and the cells were checked under a microscope for toxicity. After 30 minutes of treatment, the stimulation media was discarded and 50 mL/well of Assay Lysis Buffer (provided in the Tropix kit) was added. The plates were incubated for 45 min@37° C. 20 μL of the lysate was transferred from stimulation plates into the pre-coated antibody plates (384-well) from the Tropix kit. 10 μL of AP conjugate and 20 μL of anti-cAMP antibody was added. The plates were incubated at room temperature while shaking for 1 hour. The plates were then washed 5 times with Wash Buffer, 70 μL per well for each wash. The plates were tapped to dry. 30 μL/well of CSPD/Saphire-II RTU substrate/enhancer solution was added and incubated for 45 min @ RT (shake). Signal for 1 sec/well in a Luminometer.

Y5R = biological target: T2, Y5R (Homo sapiens, UniProt Q15761); test: CaFlux Assay (FLIPR), Y5R; type: cell-based; conditions: for Emax: read-out: Y5R FLIPR, percentage in parentheses under the EC50;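 for Emax: percent of the maximal response of the positive control agonist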
T2 sequence (Q15761 1-445): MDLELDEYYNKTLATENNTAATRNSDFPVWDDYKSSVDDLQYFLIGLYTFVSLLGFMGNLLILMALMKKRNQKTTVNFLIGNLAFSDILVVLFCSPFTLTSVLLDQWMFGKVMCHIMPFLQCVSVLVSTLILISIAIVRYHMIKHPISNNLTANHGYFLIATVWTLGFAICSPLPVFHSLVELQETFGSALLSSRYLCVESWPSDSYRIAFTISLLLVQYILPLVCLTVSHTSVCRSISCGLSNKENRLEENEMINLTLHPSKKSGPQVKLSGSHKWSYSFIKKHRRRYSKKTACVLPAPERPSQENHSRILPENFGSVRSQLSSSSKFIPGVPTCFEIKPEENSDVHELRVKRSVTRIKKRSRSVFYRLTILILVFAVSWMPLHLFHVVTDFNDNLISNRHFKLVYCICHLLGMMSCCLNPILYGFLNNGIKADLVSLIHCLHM

Y1R = biological target: T3, Y1R (Homo sapiens, UniProt P25929); test: CaFlux Assay (FLIPR), Y1R; type: cell-based
T3 sequence (P25929 1-384): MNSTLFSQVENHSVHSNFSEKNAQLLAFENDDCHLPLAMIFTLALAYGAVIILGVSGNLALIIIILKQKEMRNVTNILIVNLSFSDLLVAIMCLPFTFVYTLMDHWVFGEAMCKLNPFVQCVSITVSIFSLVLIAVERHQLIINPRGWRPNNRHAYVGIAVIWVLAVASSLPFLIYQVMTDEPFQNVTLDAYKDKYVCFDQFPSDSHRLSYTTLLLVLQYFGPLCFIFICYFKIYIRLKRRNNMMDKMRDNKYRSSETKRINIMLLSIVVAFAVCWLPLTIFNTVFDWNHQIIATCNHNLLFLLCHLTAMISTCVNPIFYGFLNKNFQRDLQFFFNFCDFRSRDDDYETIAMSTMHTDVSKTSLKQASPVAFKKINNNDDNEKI

Chain of Y4R (P50391 whole entry): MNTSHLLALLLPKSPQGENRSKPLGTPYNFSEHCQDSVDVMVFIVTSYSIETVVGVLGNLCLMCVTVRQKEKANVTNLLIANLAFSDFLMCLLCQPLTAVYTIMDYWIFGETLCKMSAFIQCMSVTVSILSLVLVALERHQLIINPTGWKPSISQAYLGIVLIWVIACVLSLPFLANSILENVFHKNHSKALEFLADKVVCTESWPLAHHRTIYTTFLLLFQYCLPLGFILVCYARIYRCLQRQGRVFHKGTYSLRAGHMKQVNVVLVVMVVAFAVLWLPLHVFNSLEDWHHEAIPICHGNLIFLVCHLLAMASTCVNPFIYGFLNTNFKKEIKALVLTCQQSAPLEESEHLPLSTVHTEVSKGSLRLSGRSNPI

| Compound | NPY release (hypothalamic slices) | EC50 (Y4R) | EC50 (hNPY2R [1]) | EC50 (hNPY2R [2]) | EC50 (Y5R) | Emax (Y5R) | EC50 (Y1R) |
| --- | --- | --- | --- | --- | --- | --- | --- |
| N=C(N)NCCC[C@H](NC(=O)CC1(CC(=O)N2CCN(C3c4ccccc4NC(=O)c4ccccc43)CC2)CCCC1)C(=O)NCCn1c(=O)n(-c2ccccc2)n(-c2ccccc2)c1=O (stereo partly shown) [BIIE0246] | increases NPY release | – | – | – | – | – | – |
| CCCCCCCCCCCCCCCC(=O)NCCOCCOCCNC(=O)CCC(=O)NCCCC[C@H](NC(=O)[C@@H](N)[C@@H](C)CC)C(=O)N1CCN(c2ccc3ncn(CC(=O)N[C@@H](CCCNC(=N)N)C(=O)N[C@@H](Cc4c[nH]cn4)C(=O)N[C@@H](Cc4ccc(O)cc4)C(=O)N[C@@H](CC(C)C)C(=O)N[C@@H](CC(N)=O)C(=O)N[C@@H](Cc4c[nH]c5ccccc45)C(=O)N[C@H](C(=O)N[C@H](C(=O)N[C@@H](CCCNC(=N)N)C(=O)N[C@@H](CCC(N)=O)C(=O)N(C)[C@@H](CCCNC(=N)N)C(=O)N[C@@H](Cc4ccc(O)cc4)C(N)=O)[C@@H](C)O)C(C)C)c(=O)c3c2)CC1 [Example 36] | – | > 5000 nM | 0.138 nM | 0.15 nM | 481 nM | 73% | > 5000 nM |
| CCCCCCCCCCCCCCCCCCCC(=O)NCCOCCOCCNC(=O)CCC(=O)NCCCC[C@H](NC(=O)[C@@H](N)[C@@H](C)CC)C(=O)N1CCN(c2ccc3ncn(CC(=O)N[C@@H](CCCNC(=N)N)C(=O)N[C@@H](Cc4c[nH]cn4)C(=O)N[C@@H](Cc4ccc(O)cc4)C(=O)N[C@@H](CC(C)C)C(=O)N[C@@H](CC(N)=O)C(=O)N[C@@H](Cc4c[nH]c5ccccc45)C(=O)N[C@H](C(=O)N[C@H](C(=O)N[C@@H](CCCNC(=N)N)C(=O)N[C@@H](CCC(N)=O)C(=O)N(C)[C@@H](CCCNC(=N)N)C(=O)N[C@@H](Cc4ccc(O)cc4)C(N)=O)[C@@H](C)O)C(C)C)c(=O)c3c2)CC1 [Example 37] | – | > 5000 nM | 0.367 nM | 0.13 nM | 77.9 nM | 48% | > 5000 nM |
| CCCCCCCCCCCCCCCC(=O)NCCOCCNC(=O)CCC(=O)NCCCC[C@H](NC(=O)[C@@H](N)[C@@H](C)CC)C(=O)N1CCN(c2ccc3ncn(CC(=O)N[C@@H](CCCNC(=N)N)C(=O)N[C@@H](Cc4c[nH]cn4)C(=O)N[C@@H](Cc4ccc(O)cc4)C(=O)N[C@@H](CC(C)C)C(=O)N[C@@H](CC(N)=O)C(=O)N[C@@H](Cc4c[nH]c5ccccc45)C(=O)N[C@H](C(=O)N[C@H](C(=O)N[C@@H](CCCNC(=N)N)C(=O)N[C@@H](CCC(N)=O)C(=O)N(C)[C@@H](CCCNC(=N)N)C(=O)N[C@@H](Cc4ccc(O)cc4)C(N)=O)[C@@H](C)O)C(C)C)c(=O)c3c2)CC1 [Example 38] | – | > 5000 nM | 0.003 nM | 0.17 nM | 644 nM | 83% | > 5000 nM |
| CCCCCCCCCCCCCCCCCCCC(=O)NCCOCCNC(=O)CCC(=O)NCCCC[C@H](NC(=O)[C@@H](N)[C@@H](C)CC)C(=O)N1CCN(c2ccc3ncn(CC(=O)N[C@@H](CCCNC(=N)N)C(=O)N[C@@H](Cc4c[nH]cn4)C(=O)N[C@@H](Cc4ccc(O)cc4)C(=O)N[C@@H](CC(C)C)C(=O)N[C@@H](CC(N)=O)C(=O)N[C@@H](Cc4c[nH]c5ccccc45)C(=O)N[C@H](C(=O)N[C@H](C(=O)N[C@@H](CCCNC(=N)N)C(=O)N[C@@H](CCC(N)=O)C(=O)N(C)[C@@H](CCCNC(=N)N)C(=O)N[C@@H](Cc4ccc(O)cc4)C(N)=O)[C@@H](C)O)C(C)C)c(=O)c3c2)CC1 [Example 39] | – | > 5000 nM | 0.073 nM | 0.21 nM | 285 nM | 50% | > 5000 nM |
| CCCCCCCCCCCCCCCC(=O)N[C@@H](CO)C(=O)N[C@@H](CO)C(=O)NCCCC[C@H](NC(=O)[C@@H](N)[C@@H](C)CC)C(=O)N1CCN(c2ccc3ncn(CC(=O)N[C@@H](CCCNC(=N)N)C(=O)N[C@@H](Cc4c[nH]cn4)C(=O)N[C@@H](Cc4ccc(O)cc4)C(=O)N[C@@H](CC(C)C)C(=O)N[C@@H](CC(N)=O)C(=O)N[C@@H](Cc4c[nH]c5ccccc45)C(=O)N[C@H](C(=O)N[C@H](C(=O)N[C@@H](CCCNC(=N)N)C(=O)N[C@@H](CCC(N)=O)C(=O)N(C)[C@@H](CCCNC(=N)N)C(=O)N[C@@H](Cc4ccc(O)cc4)C(N)=O)[C@@H](C)O)C(C)C)c(=O)c3c2)CC1 [Example 40] | – | > 5000 nM | 0.36 nM | 0.18 nM | 602 nM | 85% | > 5000 nM |
| CCCCCCCCCCCCCCCCCCCC(=O)N[C@@H](CO)C(=O)N[C@@H](CO)C(=O)NCCCC[C@H](NC(=O)[C@@H](N)[C@@H](C)CC)C(=O)N1CCN(c2ccc3ncn(CC(=O)N[C@@H](CCCNC(=N)N)C(=O)N[C@@H](Cc4c[nH]cn4)C(=O)N[C@@H](Cc4ccc(O)cc4)C(=O)N[C@@H](CC(C)C)C(=O)N[C@@H](CC(N)=O)C(=O)N[C@@H](Cc4c[nH]c5ccccc45)C(=O)N[C@H](C(=O)N[C@H](C(=O)N[C@@H](CCCNC(=N)N)C(=O)N[C@@H](CCC(N)=O)C(=O)N(C)[C@@H](CCCNC(=N)N)C(=O)N[C@@H](Cc4ccc(O)cc4)C(N)=O)[C@@H](C)O)C(C)C)c(=O)c3c2)CC1 [Example 41] | – | > 5000 nM | 0.165 nM | 0.11 nM | 1830 nM | 37% | > 5000 nM |
| CCCCCCCCCCCCCCCC(=O)N[C@H](C(=O)N[C@H](C(=O)NCCCC[C@H](NC(=O)[C@@H](N)[C@@H](C)CC)C(=O)N1CCN(c2ccc3ncn(CC(=O)N[C@@H](CCCNC(=N)N)C(=O)N[C@@H](Cc4c[nH]cn4)C(=O)N[C@@H](Cc4ccc(O)cc4)C(=O)N[C@@H](CC(C)C)C(=O)N[C@@H](CC(N)=O)C(=O)N[C@@H](Cc4c[nH]c5ccccc45)C(=O)N[C@H](C(=O)N[C@H](C(=O)N[C@@H](CCCNC(=N)N)C(=O)N[C@@H](CCC(N)=O)C(=O)N(C)[C@@H](CCCNC(=N)N)C(=O)N[C@@H](Cc4ccc(O)cc4)C(N)=O)[C@@H](C)O)C(C)C)c(=O)c3c2)CC1)[C@@H](C)O)[C@@H](C)O [Example 42] | – | > 5000 nM | 0.018 nM | 0.14 nM | 193 nM | 46% | > 5000 nM |
| CCCCCCCCCCCCCCCCCCCC(=O)N[C@H](C(=O)N[C@H](C(=O)NCCCC[C@H](NC(=O)[C@@H](N)[C@@H](C)CC)C(=O)N1CCN(c2ccc3ncn(CC(=O)N[C@@H](CCCNC(=N)N)C(=O)N[C@@H](Cc4c[nH]cn4)C(=O)N[C@@H](Cc4ccc(O)cc4)C(=O)N[C@@H](CC(C)C)C(=O)N[C@@H](CC(N)=O)C(=O)N[C@@H](Cc4c[nH]c5ccccc45)C(=O)N[C@H](C(=O)N[C@H](C(=O)N[C@@H](CCCNC(=N)N)C(=O)N[C@@H](CCC(N)=O)C(=O)N(C)[C@@H](CCCNC(=N)N)C(=O)N[C@@H](Cc4ccc(O)cc4)C(N)=O)[C@@H](C)O)C(C)C)c(=O)c3c2)CC1)[C@@H](C)O)[C@@H](C)O [Example 43] | – | > 5000 nM | 0.074 nM | 0.26 nM | 243 nM | 23% | > 5000 nM |
